Literature values in patent publication US20100216762A1, “Agonists and Antagonists of the S1P5 Receptor, and Methods of Use Thereof” (ABBOTT LABORATORIES, priority 2009, published 2010).

Legend:
[1] = spared-nerve injury model of neuropathic pain
[2] = test system: monocytes

SMILES | nociception in the formalin model | nociceptive behavior in the spared-nerve injury model [1] | Aβ-induced migration of monocytes to sites of injury [2]
CCCCCCCCc1ccc(CCC(N)(CO)CO)cc1 [FTY720] | anti-nociceptive | reduced nociceptive behavior | inhibits that migration
FC(F)(F)c1cccc(-c2noc(-c3cc(-c4ccccc4)c(C(F)(F)F)s3)n2)c1 [SEW2871] | lack of activity | – | –
